Reference: publication PMC9276676, “Difluoromethylornithine (DFMO) and AMXT 1501 inhibit capsule biosynthesis in pneumococci” (Scientific Reports, 2022)

Tests used:
[1] = parameters: method as in PMID 30262852; details: human ref 35; cited from earlier work
[2] = system: S. pneumoniae TIGR4; assay type: cell-based, Streptococcus pneumoniae; details: DFMO 137 mM (1/2 MIC), n = 5
Procedure: This was done to directly compare possible changes in intracellular concentrations of polyamines and capsule precursors as a result of DFMO inhibition of polyamine synthesis to the earlier report where polyamine synthesis was affected via gene deletion in TIGR4[24]. […] Cells were harvested (5000×g, 10 min, 4 °C), re-suspended in extraction solvent [40% acetonitrile, 40% methanol, 20% water with formic acid (0.1 M)] and transferred to bead-beater tubes (MP Biomedicals, Irvine, CA, USA). Cells were lysed using a FastPrep-24™ Classic (45 s, 6.5 m/s, RT, 3 times) (MP Biomedicals, Irvine, CA, USA) and incubated on ice (5 min after each spin). TIGR4 lysates were clarified (6000×g, 5 min, 4 °C), and metabolite differentiation and detection were performed using published protocols[28],[29]. Liquid chromatography-mass spectrometry-based (LC–MS) metabolomic analysis was performed with an Agilent Accurate Mass 6230 TOF coupled with an Agilent 1290 LC system using a Cogent Diamond Hydride Type C column. Briefly, the mobile phase consisted of the following: solvent A (ddH2O with 0.2% formic acid) and solvent B (acetonitrile with 0.2% formic acid). The gradient used was as follows: 0–2 min, 85% B; 3–5 min, 80% B; 6–7 min, 75% B; 8–9 min, 70% B; 10–11.1 min, 50% B; 11.1–14 min 20% B; 14.1–24 min 5% B followed by a 10 min re-equilibration period at 85% B at a flow rate of 0.4 mL/min. Mass axis dynamics was calibrated by continuous infusion of a reference mass solution using an isocratic pump. […] Metabolite identities were searched for using a mass tolerance of < 0.005 Da. Metabolite concentrations from the 5 biological replicates were normalized to biomass based on measurement of residual peptide content in individual samples using the Pierce BCA Protein Assay kit (Thermo Fisher Scientific, Waltham, MA, USA). Data were analyzed using Profinder B.07.00 software (Agilent Technologies, Santa Clara, CA, USA). Extracted molecular features detected in the mass analyzer were identified using accurate mass values and used to generate empirical molecular formulae using an in-house metabolite database that included known intermediates, amino acid precursors and polyamines and their derivatives. Statistical analysis of metabolite peak intensity data was performed using MetaboAnalyst 4.0[30]. Data were normalized (quantile), log transformed and significant fold change between WT and DFMO-treated WT were identified by Student’s t-test (p ≤ 0.05).

[3] = system: TIGR4; experiment: Viability/replication at 1/2 MIC DFMO (CFU on blood agar); assay type: cell-based, Streptococcus pneumoniae; details: 1/2 MIC DFMO (137 mM)
Procedure: (§1) S. pneumoniae serotypes 4 (TIGR4), 2 (D39), 19F (EF3030) and 3 (WU2) were cultured in Todd Hewitt broth supplemented with yeast extract (THY). Supplementation with DFMO ranging from 1.1 to 549 mM was carried out in triplicate in a 96-well plate and incubated at 37 °C and 5% CO2 in a Cytation™ 5 cell imaging multi-mode reader (BioTek, Winooski, VT). The change in optical density at 600 nm (OD600) was measured every hour for 24 h and used to determine the minimum inhibitory concentration (MIC) of DFMO. The optical density data was analyzed using GrowthRates 4.0 software. To determine whether DFMO at sub-MIC is bacteriostatic or lethal to pneumococcal cells, all strains were cultured in the presence or absence of 1/2 MIC DFMO. OD600 was measured every hour and CFU were enumerated on a blood agar plate (BAP) every 2 h over an 8 h incubation period.

[4] = system: EF3030; experiment: as above; assay type: cell-based, Streptococcus pneumoniae; details: 1/2 MIC DFMO (137 mM)
Procedure: as §1

[5] = system: D39; experiment: as above; assay type: cell-based, Streptococcus pneumoniae; details: 1/2 MIC DFMO (137 mM)
Procedure: as §1

Q: Which results are given for `NCCC[C@](N)(C(=O)O)C(F)F` [DFMO, α-difluoromethylornithine]?
A: safe dosage for use in human [1]: around 1.0 g/m^2/day; safe dosage for use in human, as concentration [1]: 1 to 2 mM; 5,10-methylenetetrahydrofolate, fold change TIGR4+DFMO /TIGR4 [2]: 4.4; 5-phospho-α-D-ribose 1-diphosphate (PRPP), fold change TIGR4+DFMO /TIGR4 [2]: 3.8; 6-Phosphogluconate, fold change TIGR4+DFMO /TIGR4 [2]: 7.8; Agmatine, fold change TIGR4+DFMO /TIGR4 [2]: -2.0; Arginine, fold change TIGR4+DFMO /TIGR4 [2]: 1.1; Cadaverine, fold change TIGR4+DFMO /TIGR4 [2]: -1.5; Fructose 6-phosphate, fold change TIGR4+DFMO /TIGR4 [2]: -16.8; Fucose, fold change TIGR4+DFMO /TIGR4 [2]: -1.3; GSH, fold change TIGR4+DFMO /TIGR4 [2]: -23.2; GSSG, fold change TIGR4+DFMO /TIGR4 [2]: -41.3; Galactose 1-phosphate, fold change TIGR4+DFMO /TIGR4 [2]: -16.8; Glucosamine 6-phosphate, fold change TIGR4+DFMO /TIGR4 [2]: -21.0; Glucose 6-phosphate, fold change TIGR4+DFMO /TIGR4 [2]: 10.6; Glyceraldehyde 3-phosphate, fold change TIGR4+DFMO /TIGR4 [2]: -308.6; Lysine, fold change TIGR4+DFMO /TIGR4 [2]: -1.7; Methionine, fold change TIGR4+DFMO /TIGR4 [2]: -1.8; N-Acetylspermidine, fold change TIGR4+DFMO /TIGR4 [2]: -1.6; NADH, fold change TIGR4+DFMO /TIGR4 [2]: -358.8; NADPH, fold change TIGR4+DFMO /TIGR4 [2]: 25.1; Ornithine, fold change TIGR4+DFMO /TIGR4 [2]: -1.3; Putrescine, fold change TIGR4+DFMO /TIGR4 [2]: -1.9; Pyruvate, fold change TIGR4+DFMO /TIGR4 [2]: -1.74; S-adenosylmethionine, fold change TIGR4+DFMO /TIGR4 [2]: 64.2; Sedoheptulose 7-phosphate, fold change TIGR4+DFMO /TIGR4 [2]: -13.5; Spermidine, fold change TIGR4+DFMO /TIGR4 [2]: -3.1; Spermine, fold change TIGR4+DFMO /TIGR4 [2]: 26.6; Tetrahydrofolate, fold change TIGR4+DFMO /TIGR4 [2]: -1.4; UDP, fold change TIGR4+DFMO /TIGR4 [2]: -53.1; UDP-Galactose, fold change TIGR4+DFMO /TIGR4 [2]: -66.5; UDP-Glucose, fold change TIGR4+DFMO /TIGR4 [2]: -66.5; UDP-N-acetylfucosamine, fold change TIGR4+DFMO /TIGR4 [2]: 2.3; UDP-N-acetylgalactosamine, fold change TIGR4+DFMO /TIGR4 [2]: -18.9; UDP-N-acetylglucosamine, fold change TIGR4+DFMO /TIGR4 [2]: -18.9; UDP-N-acetylmannosamine, fold change TIGR4+DFMO /TIGR4 [2]: -18.9; UDP-N-acetylmuramic acid, fold change TIGR4+DFMO /TIGR4 [2]: -259.2; UMP, fold change TIGR4+DFMO /TIGR4 [2]: -2.1; effect on viability (viability curves) [3]: some bacteriostatic effect; effect on viability (viability curves) [4]: some bacteriostatic effect; effect on viability (viability curves) [5]: some bacteriostatic effect
